Patent EP0765662A1, “HIV GROWTH INHIBITORY COMPOSITION” (Kochi, Mutsuyuki, priority 1994, dated 1995)
Where a name gives a salt, the structure may show the parent alone.

Tested on: HIVBRU
Test: HIV-p24 antigen released from HIV-infected A3.01 cells stimulated with TNF-α
Assay type: cell-based
Conditions: TNF-α 10 units/ml; for Amount of the HIV p24 antigen: HIV-infected A3.01 cells
Excerpt: In view of all these test results, it appears that the inhibitory activity of SBA against the replication of HIV-1 is not attributable to that SBA directly acts on HIV so as to make lose the infectivity (infectious power) of HIV. (c) Test of examining the inhibitory activity of SBA against such replication of the viral particles of HIV which is induced when a tumor necrosis factor (TNF-α) is introduced into the HIV-infected A3.01 cells AIDS virus, HIVBRU (its reverse transcriptase activity, 0.03 cpm/cell) and 6 x 10^6 cells of the A3.01 cell (HAT-susceptible CEM cell strain) were mixed and reacted together in a culture medium at 37°C for 1 hour, and thereafter the mixed cells were washed with PBS to remove the excess of the particles of HIV virus therefrom. The A3.01 cells (5 x 10^5 cells) which had been so infected with HIV were then cultivated in various culture media containing TNF-α and SBA at different concentrations of them. The amount of the HIV-p24 antigen (an HIV-structural protein of HIV) which was released in the culture supernatant from the cultivated cells under test was periodically measured during the period of between 0 day to 5th day of the cultivation. The culture medium used for the above-mentioned cultivation of the A3.01 cells was an RPM1-1640 medium comprising 10% of heat-treated embryonic bovine serum, and minor amounts of penicillin, streptomycin, glutamine and mercaptoethanol. The amount of the HIV-p24 antigen produced was measured with lapse of time, and the relationship of the amount of the HIV-p24 antigen to the concentration of SBA is summarily tabulated in Table 4 below.
In the tests above, the replication of the viral particles of HIV was examined in terms of the amount of the p24 antigen protein produced and appearing in the culture supernatant from the cultivated cells. Thus, the amount of the p24 antigen produced was measured periodically over 6 days after the A3.01 cells were infested with HIV. It was then observed that in the absence of SBA, the replication of the viral particles of HIV was induced in the A3.01 cells by stimulation with 10 units/ml of TNF-α added. […] Thus, the effective amount of SBA has the activity to inhibit the replication of the viral particles of HIV within the cells to an extent as same as AZT, and from this it is expected that SBA is useful similarly to AZT for the therapeutic treatments of AIDS. (d) Tests for evaluating an inhibitory activity of SBA to the formation of giant cells from HIV-infected Molt-4 cells In a similar manner to that in the above Test (c), Molt-4 cells (a CD4-positive human T-cell strain) were infected with AIDS virus, HIVBRU. Thereafter, The HIV-infected Molt-4 cells were mixed with such Molt-4 cells which had no HIV-infection. And the mixture of these cells were cultivated at a high density of the mixed cells in the above-mentioned improved RPM1-1640 medium containing SBA at its different concentrations. Whereupon, there was examined the presence of cell-fused cell(s) (namely, the giant cells) which were formed by fusion of the HIV-infected cells with each other or by fusion of the HIV-infected cells with the HIV-non-infected cells. The formation and appearance of the giant cells was confirmed by microscopic observation. The size of such giant cells is clearly different from the size of the other usual cells. […] Namely, it is shown that SBA has an anti-HIV activity. […] In the initial stage of the transcription of HIV-1 gene, said NFkB, i.e. the transcription regulating factor of the host cells, plays an important role. […] NFkB is known to be a complex protein which is composed by the association of a molecule of protein having a molecular weight of about 50,000 (p50) with a molecule of protein having a molecular weight of about 65,000 (p65). […]

O=C1O[C@H]([C@@H]2COC(c3ccccc3)O2)C(O)=C1O (stereo partly drawn) [SBA, 5,6-O-benzylidene-L-ascorbic acid mono-sodium salt]
inhibition at 10 µg/mL (Human immunodeficiency virus 1, SBA 10 µg/ml, in comparison with the cases when SBA was absent, read-out: inhibition of the replication of the HIV viral particles): 50%
Amount of the HIV p24 antigen (SBA 1 µg/ml, 0th day): 0 pg/mL
Amount of the HIV p24 antigen (SBA 1 µg/ml, 1st day): 0 pg/mL
Amount of the HIV p24 antigen (SBA 1 µg/ml, 2nd day): 0 pg/mL
Amount of the HIV p24 antigen (SBA 1 µg/ml, 3rd day): 1400 pg/mL
Amount of the HIV p24 antigen (SBA 1 µg/ml, 4th day): 2600 pg/mL
inhibition of the replication of the viral particles of HIV (in words) (SBA 1 µg/ml, 5th day from the HIV infection): considerably inhibited
Amount of the HIV p24 antigen (SBA 1 µg/ml, 5th day): 4000 pg/mL
Amount of the HIV p24 antigen (SBA 10 µg/ml, 0th day): 0 pg/mL
Amount of the HIV p24 antigen (SBA 10 µg/ml, 1st day): 0 pg/mL
Amount of the HIV p24 antigen (SBA 10 µg/ml, 2nd day): 0 pg/mL
Amount of the HIV p24 antigen (SBA 10 µg/ml, 3rd day): 800 pg/mL
Amount of the HIV p24 antigen (SBA 10 µg/ml, 4th day): 1500 pg/mL
Amount of the HIV p24 antigen (SBA 10 µg/ml, 5th day): 2250 pg/mL
Amount of the HIV p24 antigen (SBA 100 µg/ml, 0th day): 0 pg/mL
Amount of the HIV p24 antigen (SBA 100 µg/ml, 1st day): 0 pg/mL
Amount of the HIV p24 antigen (SBA 100 µg/ml, 2nd day): 0 pg/mL
Amount of the HIV p24 antigen (SBA 100 µg/ml, 3rd day): 0 pg/mL
Amount of the HIV p24 antigen (SBA 100 µg/ml, 4th day): 0 pg/mL
Amount of the HIV p24 antigen (SBA 100 µg/ml, 5th day): 0 pg/mL
inhibition of the replication of the viral particles of HIV (in words) (SBA 100 µg/ml): completely inhibited
